Experimental data: ChEMBL document CHEMBL1649078, “Novel antiviral C5-substituted pyrimidine acyclic nucleoside phosphonates selected as human thymidylate kinase substrates” (J Med Chem, 2011)

These molecules were tested on Vaccinia virus (assay: Antiviral activity against Vaccinia virus infected in human HEL cells assessed as reduction of virus-induced cytopathogenicity after 7 days). Conditions: Orthopoxvirus vaccinia, 168 h.
Type: functional, organism-based
`Cc1cn(C/C=C/CP(=O)(OCOC(=O)C(C)(C)C)OCOC(=O)C(C)(C)C)c(=O)[nH]c1=O` showed an EC50 of 30 µM.
`Cc1cn(C/C=C\CP(=O)(OCOC(=O)C(C)(C)C)OCOC(=O)C(C)(C)C)c(=O)[nH]c1=O` showed an EC50 of over 40 µM.
For `CC(C)(C)C(=O)OCOP(=O)(C/C=C/Cn1cc(Br)c(=O)[nH]c1=O)OCOC(=O)C(C)(C)C`, the EC50 was 33 µM.
For `CC(C)(C)C(=O)OCOP(=O)(C/C=C\Cn1cc(Br)c(=O)[nH]c1=O)OCOC(=O)C(C)(C)C`, the EC50 was 90 µM.
In the case of `O=c1[nH]c(=O)n([C@H]2C[C@H](O)[C@@H](CO)O2)cc1/C=C/Br` [BRIVUDINE], the EC50 is reported as 1.5 µM.
Work on `Nc1ccn(C[C@@H](CO)OCP(=O)(O)O)c(=O)n1` [CIDOFOVIR] yielded an EC50 of 6 µM.
`Nc1nc2c(ncn2COC(CO)CO)c(=O)[nH]1` [GANCICLOVIR] showed an EC50 of over 100 µM.
